According to US20070128217A1 (priority 2003, published 2007):

Tests used:
[1] = system: antibodies in sera from SARS patients (sera 1a, 1b, 2, 6, 37, 62, London, SARS-yellow, SARS-green); format: binding, human; design: Binding of serum 6 to linear peptides of protein X1 of SARS-CoV Urbani / Binding of serum 37 to linear peptides of protein X1 of SARS-CoV Urbani / Binding of serum 6 to looped/cyclic peptide (PEPSCAN-ELISA) / Binding of serum 37 to looped/cyclic peptide (PEPSCAN-ELISA) / Binding of serum 37 to looped/cyclic peptides of protein X1 of SARS-CoV Urbani / Binding of serum 6 to linear peptides of protein X2 / Binding of serum 37 to linear peptides of protein X2 / Binding of serum 37 to looped/cyclic peptides of protein X2 of SARS-CoV Urbani / Binding of serum 6 to linear peptides of protein M of SARS-CoV Urbani / Binding of serum 37 to linear peptides of protein M of SARS-CoV Urbani / Binding of serum 6 to looped/cyclic peptides of protein M of SARS-CoV Urbani / Binding of serum 37 to looped/cyclic peptides of protein M of SARS-CoV Urbani / Binding of serum 6 to linear peptides of protein X3 of SARS-CoV Urbani / Binding of serum 37 to linear peptides of protein X3 of SARS-CoV Urbani / Binding of serum 37 to looped/cyclic peptides of protein X3 of SARS-CoV Urbani / Binding of serum 6 to linear peptides of protein X4 of SARS-CoV Urbani / Binding of serum 37 to linear peptides of protein X4 of SARS-CoV Urbani / Binding of serum 37 to looped/cyclic peptides of protein X4 of SARS-CoV Urbani / Binding of serum 6 to linear peptides of protein X5 of SARS-CoV Urbani / Binding of serum 37 to linear peptides of protein X5 of SARS-CoV Urbani / Binding of serum 37 to looped/cyclic peptides of protein X5 of SARS-CoV Urbani / Binding of serum 6 to linear peptides of protein N of SARS-CoV Urbani / Binding of serum 37 to linear peptides of protein N of SARS-CoV Urbani / Binding of serum 6 to linear peptide (PEPSCAN-ELISA) / Binding of serum 1a to looped/cyclic peptides of protein N of SARS-CoV Urbani / Binding of serum 1b to looped/cyclic peptides of protein N of SARS-CoV Urbani / Binding of serum 2 to looped/cyclic peptides of protein N of SARS-CoV Urbani / Binding of serum 6 to looped/cyclic peptides of protein N of SARS-CoV Urbani / Binding of serum 37 to looped/cyclic peptides of protein N of SARS-CoV Urbani / Binding of serum 62 to looped/cyclic peptides of protein N of SARS-CoV Urbani / Binding of serum London to looped/cyclic peptides of protein N of SARS-CoV Urbani / Binding of serum SARS-green to looped/cyclic peptides of protein N of SARS-CoV Urbani: unit not given here
[2] = system: control sera (pooled serum of ten healthy LUMC hospital workers; commercial negative donor pooled serum from the Dutch bloodbank); format: binding, human; design: Binding of Control serum LUMC to linear peptides / Binding of Control serum Blood-bank to linear peptides / Binding of Control serum LUMC to looped peptides / Binding of Control Serum Blood-Bank to Looped peptides / Binding of Control serum LUMC to linear peptides of the protein M of SARS-CoV Urbani / Binding of Control serum Blood-bank to linear peptides of the protein M of SARS-CoV Urbani / Binding of Control serum LUMC to looped peptides of the protein M of SARS-CoV Urbani / Binding of Control Serum Blood-Bank to Looped peptides of the protein M of SARS-CoV Urbani: unit not given here
[3] = system: rabbit serum obtained by immunizing a rabbit with the SARS-CoV strain Frankfurt 1; format: binding; design: Binding of a rabbit serum to linear peptides / Binding of a rabbit serum to looped peptides / Rabbit serum linear peptides / Rabbit serum looped peptides / Binding of a rabbit serum to linear peptides of protein N of SARS-CoV Urbani (Rabbit serum linear peptides) / Binding of a rabbit serum to looped/cyclic peptides of protein N of SARS-CoV Urbani (Rabbit serum looped peptides): unit not given here
[4] = system: recombinant human anti-SARS-CoV antibody 03-018; format: binding; design: Binding of antibody 03-018 to linear peptides of the N protein of SARS-CoV Urbani / Binding of antibody 03-018 to looped/cyclic peptides of the N protein of SARS-CoV Urbani: unit not given here

EPKKDKKKKTDEAQP
Binding of serum 1a to linear peptides of protein N of SARS-CoV Urbani [1]: 0.2
Binding of serum 1a to looped/cyclic peptides of protein N of SARS-CoV Urbani [1]: 0.2
Binding of serum 1b to linear peptides of protein N of SARS-CoV Urbani [1]: 0.1
Binding of serum 1b to looped/cyclic peptides of protein N of SARS-CoV Urbani [1]: 0.1
Binding of serum 2 to linear peptides of protein N of SARS-CoV Urbani [1]: 2.4
Binding of serum 2 to looped/cyclic peptides of protein N of SARS-CoV Urbani [1]: 2.1
Binding of serum 6 to linear peptides of protein N of SARS-CoV Urbani [1]: 0.2
Binding of serum 6 to looped/cyclic peptides of protein N of SARS-CoV Urbani [1]: 0.1
Binding of serum 37 to linear peptides of protein N of SARS-CoV Urbani [1]: 0.7
Binding of serum 37 to looped/cyclic peptides of protein N of SARS-CoV Urbani [1]: 0.4
Binding of serum 62 to linear peptides of protein N of SARS-CoV Urbani [1]: 0.7
Binding of serum 62 to looped/cyclic peptides of protein N of SARS-CoV Urbani [1]: 0.3
Binding of serum London to linear peptides of protein N of SARS-CoV Urbani [1]: 0.7
Binding of serum London to looped/cyclic peptides of protein N of SARS-CoV Urbani [1]: 0.3
Binding of serum SARS-green to linear peptides of protein N of SARS-CoV Urbani [1]: 0.5
Binding of serum SARS-green to looped/cyclic peptides of protein N of SARS-CoV Urbani [1]: 0.0
Binding of serum SARS-yellow to linear peptides of protein N of SARS-CoV Urbani [1]: 0.6
Binding of serum SARS-yellow to looped/cyclic peptides of protein N of SARS-CoV Urbani [1]: 0.1
Control Serum Blood-Bank Looped peptides [2]: 0.5
Control serum Blood-bank linear peptides [2]: 0.8
Control serum LUMC linear peptides [2]: 0.8
Control serum LUMC looped peptides [2]: 0.3
Binding of a rabbit serum to linear peptides of protein N of SARS-CoV Urbani (Rabbit serum linear peptides) [3]: 0.2
Binding of a rabbit serum to looped/cyclic peptides of protein N of SARS-CoV Urbani (Rabbit serum looped peptides) [3]: 0.3
Binding of antibody 03-018 to linear peptides of the N protein of SARS-CoV Urbani [4]: 0.1
Binding of antibody 03-018 to looped/cyclic peptides of the N protein of SARS-CoV Urbani [4]: 0.2

EQTQGNFGDQDLIRQ
Binding of serum 1a to looped/cyclic peptides of protein N of SARS-CoV Urbani [1]: 0.3
Binding of serum 1b to looped/cyclic peptides of protein N of SARS-CoV Urbani [1]: 0.1
Binding of serum 2 to looped/cyclic peptides of protein N of SARS-CoV Urbani [1]: 0.4
Binding of serum 6 to looped/cyclic peptides of protein N of SARS-CoV Urbani [1]: 0.3
Binding of serum 37 to looped/cyclic peptides of protein N of SARS-CoV Urbani [1]: 0.2
Binding of serum 62 to looped/cyclic peptides of protein N of SARS-CoV Urbani [1]: 0.3
Binding of serum London to looped/cyclic peptides of protein N of SARS-CoV Urbani [1]: 0.3
Binding of serum SARS-green to looped/cyclic peptides of protein N of SARS-CoV Urbani [1]: 1.3
Binding of serum SARS-yellow to looped/cyclic peptides of protein N of SARS-CoV Urbani [1]: 0.3
Recognition of the peptide by sera of SARS-CoV infected individuals, and form (linear, looped/cyclic) in which it is recognized [1]: recognized in linear form
Binding of Control Serum Blood-Bank to Looped peptides [2]: 0.6
Binding of Control serum Blood-bank to linear peptides [2]: 1.0
Binding of Control serum LUMC to linear peptides [2]: 1.0
Binding of Control serum LUMC to looped peptides [2]: 0.6
Binding of a rabbit serum to linear peptides of protein N of SARS-CoV Urbani (Rabbit serum linear peptides) [3]: 0.2
Binding of a rabbit serum to looped/cyclic peptides of protein N of SARS-CoV Urbani (Rabbit serum looped peptides) [3]: 0.0
Binding of antibody 03-018 to linear peptides of the N protein of SARS-CoV Urbani [4]: 0.1
Binding of antibody 03-018 to looped/cyclic peptides of the N protein of SARS-CoV Urbani [4]: 0.0
